We go through one sequence from patent publication US11787850B2, “Peptidic TGF-beta antagonists” (priority 2015, dated 2023).

The assay relates to TGF-β-induced fibrotic response in primary human fibroblasts isolated from scleroderma patients. The assay can be described thus: Immunoblot of fibrotic markers in scleroderma patient fibroblasts. The note with it: various concentrations of P16, 20 pM TGF-β, 24 hours (FIG. 31). The assay is classed as cell-based. An excerpt: (FIG. 30A) Cell lysates were separated by gel electrophoresis, transferred to a membrane, and immunoblotted with antibodies against the indicated proteins. (FIG. 30B) The data shown represent the mean expression levels of 3 different biological replicates calculated by densitometry of fibronectin, PAI-1, and CTGF intensity levels normalized to α-tubulin. Error bars represent the standard deviation of the replicate experiments. A single asterisk designates a t test P value of less than 0.05.
Fibroblasts were starved for 36 hours, then treated with 20 pM TGF-β and various concentrations of P16 as indicated for 24 hours. (FIG. 31A) Cell lysates were separated by gel electrophoresis, transferred to a membrane, and immunoblotted with antibodies against the indicated proteins. (FIG. 31B) The data shown represent the mean expression levels of 3 different biological replicates calculated by densitometry of fibronectin, PAI-1, and CTGF intensity levels normalized to α-tubulin. Error bars represent the standard deviation of the replicate experiments. A single asterisk designates a t test P value of less than 0.05, and a double asterisk indicates a P value of less than 0.01.
(In general: In western blotting, separated proteins are transferred to a membrane and probed.)

On to ETWIWLDTNMGSRIYQ [Peptide P16], for which the “inhibition of TGF-β-induced fibrotic response, dose-dependent” value was “inhibit”.
